# Source: patent publication US20030181659A1, “Thrombopoietin receptor modulating peptide” (priority 2000, published 2003)
# Like-named read-outs stand apart in the source and are kept apart here. Where a SMILES comes first, the peptide text is derived from it.
# Columns and labels:
# TPO-R [1] = molecular target: T1, TPO-R (Homo sapiens, UniProt P40238); test: In vitro signalling assay, dose response (STAT5 phosphorylation); type: cell-based; conditions: dose response 0.3 nM to 30 μM
# T1 construct: endogenous in cells; host or cells: TF-1 cells
# T1 sequence (P40238 26-635): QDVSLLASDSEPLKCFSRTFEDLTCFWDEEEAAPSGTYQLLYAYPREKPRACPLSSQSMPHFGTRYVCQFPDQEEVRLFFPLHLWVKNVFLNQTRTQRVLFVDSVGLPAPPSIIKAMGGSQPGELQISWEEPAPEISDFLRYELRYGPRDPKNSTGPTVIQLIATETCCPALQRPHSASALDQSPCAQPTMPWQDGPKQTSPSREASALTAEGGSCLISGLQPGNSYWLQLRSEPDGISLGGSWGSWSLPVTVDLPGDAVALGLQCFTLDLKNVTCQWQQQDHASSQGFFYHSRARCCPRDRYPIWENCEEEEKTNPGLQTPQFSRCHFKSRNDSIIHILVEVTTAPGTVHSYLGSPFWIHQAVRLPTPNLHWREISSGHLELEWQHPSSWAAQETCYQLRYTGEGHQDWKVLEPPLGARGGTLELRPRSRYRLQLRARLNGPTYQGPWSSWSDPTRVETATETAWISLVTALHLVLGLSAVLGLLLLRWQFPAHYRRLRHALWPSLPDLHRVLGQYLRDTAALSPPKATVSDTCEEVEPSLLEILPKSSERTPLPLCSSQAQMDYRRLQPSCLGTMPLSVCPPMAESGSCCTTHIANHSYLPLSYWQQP
# Method: (§1) Treatment of the cells: TF-1 cells were grown to an approximate density of 1×10^6 cells in RPMI 1640 media with 1× Penicillin/Streptomycin, 2 mM glutamin, 10% fetal bovine serum (Hyclone) and 1 ng/ml GM-CSF, centrifuged down and resuspended in media with 3% serum and no GM-CSF. The cells were starved for 14-18 hours at 37° C. (5% CO2), spun down and resuspended at a density of 1×10^6 cells/ml in a medium without serum and GM-CSF. 2 ml of cell suspension was treated with the oligopeptide or TPO (as indicated per experiment) at 37° C. for 30 min. (5% CO2). 10 ml of ice-cold cell wash buffer was added per Falcon tube and centrifuged down quickly at 4° C. and 3000 rpm,. The medium was carefully aspirated and the wash repeated twice with PBS.
# The following steps were performed on ice. The medium was aspirated and 0.6 ml of 2× lysis buffer per tube was added. This was pipetted up and down and transferred to Eppendorf tubes, placed on ice for circa 30 min., and centrifuged at 14,000×g for 10 min. The supernatant (lysate) was used in immunoprecipitations.
# Immunoprecipitations: 20-40 μL of GammaBind G Sepharose slurry was used per immunoprecipitation. The protein G beads were washed several times with 0.5× lysis buffer in Eppendorf tubes and 1-4 μg of PY-99 antibody (Santa Cruz-Biotechnology) was added per immunoprecipitation. The tubes were incubated with end-over-end rotation for 2 h at room temperature. The lysate was added and the tubes further incubated with end-over-end rotation overnight at 4° C. The beads were washed 3 times with 1× lysis buffer and once with 0.5 M Tris pH 6.5. 50 μl of SDS-sample buffer was added and the samples were boiled for 3 min prior to being applied to the gels.
# Western blot analysis: about 10 μl/sample was run on a 8% Polyacrylamide mini gel, transferred to PVDF membrane (Millipore), blocked for 1 h in blocking buffer and incubated with αSTAT5 antibody (Santa Cruz-Biotechnology) overnight at 4° C. in an 1:1000 dilution. The membrane was washed, incubated with appropriate alkaline phosphatase conjugated secondary antibody, 1:2000 dilution at room temperature for 2 h. The PVDF-membrane was washed with Blotto and developed with NBT/BCIP (Cappel).
# Dose-response curves of the present oligopeptides were performed and their activity was compared to the wild type TPO-Rp.
# Peptide dose response activity was evaluated primarily by in vitro signalling assays. Phosphorylation and thus activation of STAT5, a substrate of JAK2 kinase that is activated by TPO-Rp signal transduction, was measured. Each oligopeptide activity was addressed through a broad range of concentrations. Peptides were tested at concentrations of 0.3, 3, 10, 30 nM and 0.1, 0.3, 3 and 30 μM TPO-Rp. Oligopeptide activity as a measurement of STAT5 phosphorylation in each experiment was compared to activity obtained with 10 ng/ml of TPO, a hormone concentration that gives a maximal activation and signalling through TPO-R. All the peptides were evaluated four to five times in independent experiments. All the data was collected, Western blots were scanned and the intensity of the STAT5 phosphorylation was quantified.
# The activity of each oligopeptide was addressed as percent of its maximum activity; thus 100% activity was assigned to the value of STAT5 protein phosphorylation obtained with 30 μM oligopeptide concentration.
# carboplatin treated mice [2] = type: in vivo; conditions: for effects on other blood components: mouse, in vivo
# Excerpt: The model used for the in vivo experiments was reported previously (Akahori et al. (1996) Stem Cells 14:678-689, Akahori et al. (1996) Br. J. Haematol. 94:722-728, Shibuya et al. (1998) Blood 91:37-45, Andrews et al. (1996) Stem Cells 14:661-677). Improvements and modifications that were introduced are indicated below.
# Each test group (PBS, TPO, or TPO-Rp) was given as a single daily dose administered by intraperitoneal injection. Daily doses were begun on day 0 and continued throughout the duration of the experimental period (day 10). Two i.p. injections of carboplatin 90 mg/kg each (PBS for group 11) were given on days 0 and 4.
# Blood collections were taken on days −0 (basal), 8, 11, 14, and 18. Blood was obtained by sampling from the tail of mice (8 week old male […] mice), followed by cauterisation. A volume of 80 μl of blood from each mouse was collected into a heparinized blood collection tube. The 80 μl of blood was then mixed with 160 μl of saline containing sufficient EDTA (0.225%) to provide for anticoagulation.
# […] Carboplatin is used to induce thrombocytopenia. In order to work with a model that is as similar as possible to clinical situations, a previously reported carboplatin model (Akahori et al. (1996) Stem Cells 14:678-689, Akahori et al. (1996) Br. J. Haematol. 94:722-728, Shibuya et al. (1998) Blood 91:37-45, Andrews et al. (1996) Stem Cells 14:661-677) has been carefully studied and modified accordingly. Additionally, a method for animal bleeds has been carefully studied, in order to work with animals that show the highest response to a given drug and which are at the same time under a minimum of stress (see Methods above). Thus, the dose of carboplatin has been increased to 180 mg/kg and was given by two intraperitoneal (i.p) injections on day 0 (half-dose) and day 4 (second half-dose). Carboplatin induced severe thrombocytopenia on day eight.
# TPO-R [3] = molecular target: T1, TPO-R; test: In vitro signalling assay (STAT5 phosphorylation in TF-1 cells) of stored peptide samples; type: cell-based; conditions: day 30, solution in water stored at −20° C.
# Method: as §1
# The following steps were performed on ice. The medium was aspirated and 0.6 ml of 2× lysis buffer per tube was added. […]
# The activity of the oligopeptides of the present invention and wild type TPO-Rp was examined by in vitro signalling assays. […] Phosphorylation and thus activation of STATS, a substrate of JAK2 kinase that is activated by TPO-R signal transduction, was measured. […] All the peptides were evaluated three to four times in independent experiments. All the data were collected, Western blots were scanned, and intensity of the STAT5 phosphorylation was quantified.
# carboplatin treated mice [4] = test: Carboplatin (200 mg/kg) induced thrombocytopenia in mice; type: in vivo; conditions: for platelet number: carboplatin 200 mg/kg
# Method: Each test group was given a single daily dose administered by intraperitoneal injection. Daily doses were begun on day 0 and continued throughout the duration of the experimental period (day 13). Minimal doses were given on indicated days: 0 and 4; 0, 4 and 8; 0, 4, 8 and 12; days 8 through 14. Two i.p. injections of carboplatin 100 mg/kg were given on days 0 and 4.
# Blood collections were taken on days 0 (basal), 8, 11, 14 and 18. Blodd was obtained by sampling from the tails of mice (8 week old male C57BL/6J mice) followed by cauterisation. A volume of 80 μl of blood from each mouse was collected into a heparinized blood collection tube. The 80 μl of blood was then mixed with 160 μl of saline containing sufficient EDTA (0.225%) to provide for anticoagulation.
# The dose of carboplatin has been increased to 200 mg/kg and was given as a cumulative dose by two intraperitoneal (i.p.) injections on day 0 (half-dose) and day 4 (second half-dose). Carboplatin induced severe thrombocytopenia on day eleven.
# [5] = molecular target: thrombopoietin receptor (TPO-R) on TF-1 cells (UniProt P40238); test: cell-based or functional assay
molecule,measurement,setting,value
CC(C)C[C@H](NC(=O)[C@H](CCC(N)=O)NC(=O)[C@H](CC(C)C)NC(=O)[C@H](CCCNC(=N)N)NC(=O)[C@H](Cc1ccc(O)cc1)NC(=O)[C@H](CCCNC(=N)N)NC(=O)[C@H](CO)NC(=O)[C@H](C)NC(=O)[C@@H]1CCCN1C(=O)[C@H](C)NC(=O)[C@H](CC(C)C)NC(=O)[C@H](CCC(=O)O)NC(=O)[C@H](CC(C)C)NC(=O)[C@@H](NC(=O)CN)[C@@H](C)O)C(=O)O [SEQ ID No. 4] (H-GTLELAPASRYRLQL-OH; N-terminus and C-terminus assumed),activity compared to wild type TPO-Rp (STAT5 phosphorylation),TPO-R [1],retained activity comparable to wild type TPO-Rp
same,effect on platelet levels / thrombocytopenia,"carboplatin treated mice [2]; dose not given, carboplatin 180 mg/kg",some effect on platelet levels
same,effects on other blood components,carboplatin treated mice [2],None of the peptides used
"CC(C)C[C@H](NC(=O)[C@H](CCCNC(=N)N)NC(=O)[C@H](C)NC(=O)[C@H](CCCNC(=N)N)NC(=O)[C@H](CC(C)C)NC(=O)[C@H](CCC(N)=O)NC(=O)[C@H](CC(C)C)NC(=O)[C@H](CCCNC(=N)N)NC(=O)[C@H](Cc1ccc(O)cc1)NC(=O)[C@H](CCCNC(=N)N)NC(=O)[C@H](CO)NC(=O)[C@H](CCCNC(=N)N)NC(=O)[C@@H]1CCCN1C(=O)[C@H](CCCNC(=N)N)NC(=O)[C@H](CC(C)C)NC(=O)[C@H](CCC(=O)O)NC(=O)[C@H](CC(C)C)NC(=O)[C@@H](NC(=O)CNC(=O)CNC(=O)[C@H](CCCNC(=N)N)NC(=O)[C@H](C)N)[C@@H](C)O)C(=O)N[C@@H](CC(N)=O)C(=O)O [TPO-Rp wild type, ARGGTLELRPRSRYRLQLRARLN] (H-ARGGTLELRPRSRYRLQLRARLN-OH; N-terminus and C-terminus assumed)",activity (STAT5 phosphorylation) after storage,TPO-R [3],significant decrease in activity
same,"platelet (thrombocyte) number, percent change from basal","carboplatin treated mice [2]; 30 μg/kg/day i.p. daily from day 0, carboplatin 180 mg/kg",significantly increased the thrombocyte number
same,"platelet (thrombocyte) number, percent change from basal","carboplatin treated mice [2]; 300 μg/kg/day i.p. daily from day 0, carboplatin 180 mg/kg",significantly increased the thrombocyte number
same,survival rate of treated animals,"carboplatin treated mice [2]; CHI-square analysis, carboplatin 180 mg/kg",statistically significant survival rate
same,effects on other blood components,carboplatin treated mice [2],None of the peptides used
"SEQ ID No. 1: oligopeptide A1-L18 of wild type TPO-Rp, 18 amino acids, without R9A, R11A substitutions (ARGGTLELRPRSRYRLQL; listed as Homo sapiens)",activity compared to wild type TPO-Rp (STAT5 phosphorylation),TPO-R [1],activity comparable to the wild type TPO-Rp
"SEQ ID No. 3: shortest oligopeptide, 15 amino acids long, G4-L18 of wild type TPO-Rp (GTLELRPRSRYRLQL; listed as Homo sapiens)",activity compared to wild type TPO-Rp (STAT5 phosphorylation),TPO-R [1],retained activity comparable to wild type TPO-Rp
SEQ ID No. 5: oligopeptide G4-R21 of wild type TPO-Rp (GTLELRPRSRYRLQLRAR; listed as Homo sapiens),activity compared to wild type TPO-Rp (STAT5 phosphorylation),TPO-R [1],activity identical to wild type TPO-Rp
"SEQ ID No. 6: oligopeptide G4-R21 of wild type TPO-Rp, R9A, R11A form (GTLELAPASRYRLQLRAR; listed as Homo sapiens)",activity compared to wild type TPO-Rp (STAT5 phosphorylation),TPO-R [1],activity identical to wild type TPO-Rp
"TPO: thrombopoietin, natural hormone, glycoprotein ligand of c-mpl (TPO-R)",platelet number,carboplatin treated mice [4]; 2.4 μg/kg/day days 0 through 13,again unable to protect decrease in platelets
same,platelet number,carboplatin treated mice [4]; 10 μg/kg/day days 0 through 13,some effect that does have statistical significance
same,effect on thrombocytopenia,"carboplatin treated mice [4]; 10 μg/kg/day from day 8 through 14, carboplatin from day 0",did not show a significant effect on thrombocytopenia
same,platelet number,"carboplatin treated mice [2]; 2.4 μg/kg/day i.p. daily, carboplatin 180 mg/kg",unable to prevent a decrease in platelets
thrombopoietin (TPO) (from UniProt P40225 22-353) (ligand),STAT5 phosphorylation in TF-1 cells; TPO concentration giving maximal activation,[5],10 ng/mL
